Data as given in US4122034A, “Antimicrobial compositions” (Schering Corporation, priority 1975, dated 1978).
Values after ≈ are worked out from the molar mass of the structure shown.

How the values were obtained:
[1] = test system: Bacteroides melaninogenicus; assay: In vitro activity against anaerobes in fluid Thioglycollate medium (Table II); type: cell-based
Experimental: (§1) All the tests were carried out and (when necessary) scored under standard conditions. "MIC" means "minimum inhibitory concentration."
(§2) In vitro activity of 2-aminoalkyl-3-phenylindoles of the formula I
(§3) against anaerobes in fluid Thioglycollate medium

Eubacterium lentum = assay: as above; type: cell-based; details: Eggerthella lenta
Experimental: as §1, §2, §3

Candida albicans = assay: In vitro Anti-Candida activity, dilutions in Sabouraud's Dextrose Agar (Table III); type: cell-based; details: 48 h
Experimental: as §1
In vitro Anti-Candida Activity of 2-aminoalkyl-3-phenyl-
indoles of the formula I. Dilutions in Sabouraud's Dextrose
MIC (mcg/ml) after 48 hours

[2] = Acute toxicity in mice (Table V); details: mouse, in vivo
Experimental: as §1
Acute Toxicity of 2-aminoalkyl-3-phenylindoles of the formula I

T. mentagrophytes = assay: Effect against topical T. mentagrophytes infections in guinea pigs (Table VI); type: in vivo; set-up: Average Sum of lesion scores, Days 1-5 / Average Sum of lesion scores, Days 1-10: scale not given here; details: for Average Sum of lesion scores, Days 1-5: untreated controls 14.8; for Average Sum of lesion scores, Days 1-10: untreated controls 38.2
Experimental: as §1
Effect of some 2-aminoalkyl-3-phenylindoles of the formula II
against topical T. mentagrophytes infections in guinea pigs.

[3] = strain Atkisson, after 48 hours
[4] = strain Bertrand, after 48 hours
[5] = strain Burnside, after 48 hours
[6] = strain Kenndy 2, after 48 hours
[7] = strain Kennedy 1, after 48 hours
[8] = strain Shurelli, after 48 hours

NCc1[nH]c2cc(Br)c(Cl)cc2c1-c1ccccc1 [D, 2-aminomethyl-6-bromo-5-chloro-3-phenylindole]
MIC ([1]; 48 hrs): 3 mg/L (≈ 8.94 µM) | MIC ([1]; 72 hrs): 3 mg/L (≈ 8.94 µM) | MIC (Eubacterium lentum; 48 hrs): 0.75 mg/L (≈ 2.23 µM) | MIC (Eubacterium lentum; 72 hrs): 0.75 mg/L (≈ 2.23 µM) | MIC (Candida albicans; strain 1, after 48 hours): 150 mg/L (≈ 447 µM) | MIC (Candida albicans; strain 2, after 48 hours): 150 mg/L (≈ 447 µM) | MIC (Candida albicans; strain 3, after 48 hours): 75 mg/L (≈ 223 µM) | MIC (Candida albicans; strain 4, after 48 hours): 37.5 mg/L (≈ 112 µM) | MIC (Candida albicans; strain 5, after 48 hours): 75 mg/L (≈ 223 µM) | MIC (Candida albicans; strain 6, after 48 hours): 150 mg/L (≈ 447 µM) | MIC (Candida albicans; strain 8, after 48 hours): 150 mg/L (≈ 447 µM) | MIC (Candida albicans; strain 9, after 48 hours): 150 mg/L (≈ 447 µM) | MIC (Candida albicans; strain 29, after 48 hours): 75 mg/L (≈ 223 µM) | MIC (Candida albicans; [3]): 150 mg/L (≈ 447 µM) | MIC (Candida albicans; [4]): 150 mg/L (≈ 447 µM) | MIC (Candida albicans; strain Bevan, after 48 hours): 150 mg/L (≈ 447 µM) | MIC (Candida albicans; strain Blunden, after 48 hours): 17.5 mg/L (≈ 52.1 µM) | MIC (Candida albicans; strain Bognay, after 48 hours): 75 mg/L (≈ 223 µM) | MIC (Candida albicans; strain Boyer, after 48 hours): 150 mg/L (≈ 447 µM) | MIC (Candida albicans; strain Burke, after 48 hours): 150 mg/L (≈ 447 µM) | MIC (Candida albicans; [5]): 75 mg/L (≈ 223 µM) | MIC (Candida albicans; strain Collins, after 48 hours): 75 mg/L (≈ 223 µM) | MIC (Candida albicans; strain Fix, after 48 hours): 75 mg/L (≈ 223 µM) | MIC (Candida albicans; strain Frazier, after 48 hours): 150 mg/L (≈ 447 µM) | MIC (Candida albicans; strain Fulcher, after 48 hours): 75 mg/L (≈ 223 µM) | MIC (Candida albicans; strain Gay, after 48 hours): 150 mg/L (≈ 447 µM) | MIC (Candida albicans; strain Hons, after 48 hours): 150 mg/L (≈ 447 µM) | MIC (Candida albicans; strain Johnson, after 48 hours): 150 mg/L (≈ 447 µM) | MIC (Candida albicans; [6]): 150 mg/L (≈ 447 µM) | MIC (Candida albicans; [7]): 17.5 mg/L (≈ 52.1 µM) | MIC (Candida albicans; strain Lehtman, after 48 hours): 150 mg/L (≈ 447 µM) | MIC (Candida albicans; strain Lusk, after 48 hours): 75 mg/L (≈ 223 µM) | MIC (Candida albicans; strain Merkel, after 48 hours): 75 mg/L (≈ 223 µM) | MIC (Candida albicans; strain Newcomb, after 48 hours): 17.5 mg/L (≈ 52.1 µM) | MIC (Candida albicans; strain Sherod, after 48 hours): 150 mg/L (≈ 447 µM) | MIC (Candida albicans; [8]): 150 mg/L (≈ 447 µM) | MIC (Candida albicans; strain Sparks, after 48 hours): 150 mg/L (≈ 447 µM) | MIC (Candida albicans; strain Tyner, after 48 hours): 75 mg/L (≈ 223 µM) | LD50 ([2]; Oral): ~950 mg/kg | LD50 ([2]; ip, I.P.): 175 mg/kg | LD50 ([2]; sc, S.C.): 750 mg/kg | Average No. of Days to become negative, Cultures (T. mentagrophytes; concentration 1%): > 22 days | Average No. of Days to become negative, Lesion (T. mentagrophytes; concentration 1%): > 22 days | Average Sum of lesion scores, Days 1-5 (T. mentagrophytes; concentration 1%): 11.6 | Average Sum of lesion scores, Days 1-10 (T. mentagrophytes; concentration 1%): 29.2 | Average No. of Days to become negative, Cultures (T. mentagrophytes; concentration 4%): 6.2 days | Average No. of Days to become negative, Lesion (T. mentagrophytes; concentration 4%): 8.8 days | Average Sum of lesion scores, Days 1-5 (T. mentagrophytes; concentration 4%): 11.8 | Average Sum of lesion scores, Days 1-10 (T. mentagrophytes; concentration 4%): 14.2

NCc1[nH]c2ccc(Cl)cc2c1-c1c(F)cccc1F [B, 2-aminomethyl-5-chloro-3-(2,6-difluorophenyl)indole]
MIC ([1]; 48 hrs): 7.5 mg/L (≈ 25.6 µM) | MIC ([1]; 72 hrs): 17.5 mg/L (≈ 59.8 µM) | MIC (Eubacterium lentum; 48 hrs): 17.5 mg/L (≈ 59.8 µM) | MIC (Eubacterium lentum; 72 hrs): 17.5 mg/L (≈ 59.8 µM) | MIC (Candida albicans; strain 1, after 48 hours): 150 mg/L (≈ 512 µM) | MIC (Candida albicans; strain 2, after 48 hours): 75 mg/L (≈ 256 µM) | MIC (Candida albicans; strain 3, after 48 hours): 150 mg/L (≈ 512 µM) | MIC (Candida albicans; strain 4, after 48 hours): 75 mg/L (≈ 256 µM) | MIC (Candida albicans; strain 5, after 48 hours): 75 mg/L (≈ 256 µM) | MIC (Candida albicans; strain 6, after 48 hours): 150 mg/L (≈ 512 µM) | MIC (Candida albicans; strain 8, after 48 hours): 150 mg/L (≈ 512 µM) | MIC (Candida albicans; strain 9, after 48 hours): 75 mg/L (≈ 256 µM) | MIC (Candida albicans; strain 29, after 48 hours): 75 mg/L (≈ 256 µM) | MIC (Candida albicans; [3]): 75 mg/L (≈ 256 µM) | MIC (Candida albicans; [4]): 150 mg/L (≈ 512 µM) | MIC (Candida albicans; strain Bevan, after 48 hours): 150 mg/L (≈ 512 µM) | MIC (Candida albicans; strain Blunden, after 48 hours): 75 mg/L (≈ 256 µM) | MIC (Candida albicans; strain Bognay, after 48 hours): 75 mg/L (≈ 256 µM) | MIC (Candida albicans; strain Boyer, after 48 hours): 150 mg/L (≈ 512 µM) | MIC (Candida albicans; strain Burke, after 48 hours): 75 mg/L (≈ 256 µM) | MIC (Candida albicans; [5]): 150 mg/L (≈ 512 µM) | MIC (Candida albicans; strain Collins, after 48 hours): 75 mg/L (≈ 256 µM) | MIC (Candida albicans; strain Fix, after 48 hours): 75 mg/L (≈ 256 µM) | MIC (Candida albicans; strain Frazier, after 48 hours): 150 mg/L (≈ 512 µM) | MIC (Candida albicans; strain Fulcher, after 48 hours): 75 mg/L (≈ 256 µM) | MIC (Candida albicans; strain Gay, after 48 hours): 150 mg/L (≈ 512 µM) | MIC (Candida albicans; strain Hons, after 48 hours): 150 mg/L (≈ 512 µM) | MIC (Candida albicans; strain Johnson, after 48 hours): 150 mg/L (≈ 512 µM) | MIC (Candida albicans; [6]): 150 mg/L (≈ 512 µM) | MIC (Candida albicans; [7]): 75 mg/L (≈ 256 µM) | MIC (Candida albicans; strain Lehtman, after 48 hours): 150 mg/L (≈ 512 µM) | MIC (Candida albicans; strain Lusk, after 48 hours): 75 mg/L (≈ 256 µM) | MIC (Candida albicans; strain Merkel, after 48 hours): 75 mg/L (≈ 256 µM) | MIC (Candida albicans; strain Newcomb, after 48 hours): 37.5 mg/L (≈ 128 µM) | MIC (Candida albicans; strain Sherod, after 48 hours): 150 mg/L (≈ 512 µM) | MIC (Candida albicans; [8]): 150 mg/L (≈ 512 µM) | MIC (Candida albicans; strain Sparks, after 48 hours): 150 mg/L (≈ 512 µM) | MIC (Candida albicans; strain Tyner, after 48 hours): 150 mg/L (≈ 512 µM) | LD50 ([2]; Oral): ~1000 mg/kg | LD50 ([2]; ip, I.P.): 225 mg/kg | LD50 ([2]; sc, S.C.): 900 mg/kg | Average No. of Days to become negative, Cultures (T. mentagrophytes; concentration 1%): 9.6 days | Average No. of Days to become negative, Lesion (T. mentagrophytes; concentration 1%): 14.2 days | Average Sum of lesion scores, Days 1-5 (T. mentagrophytes; concentration 1%): 11.6 | Average Sum of lesion scores, Days 1-10 (T. mentagrophytes; concentration 1%): 20.0 | Average No. of Days to become negative, Cultures (T. mentagrophytes; concentration 4%): 5.0 days | Average No. of Days to become negative, Lesion (T. mentagrophytes; concentration 4%): 7.2 days | Average Sum of lesion scores, Days 1-5 (T. mentagrophytes; concentration 4%): 9.2 | Average Sum of lesion scores, Days 1-10 (T. mentagrophytes; concentration 4%): 10.0
